Patent US20110046079A1, “Use of Proton Pump Inhibitors as Drug Delivery Adjuvants” (priority 2008, published 2011)

Key:
[1] = tested on: rat gastric corpus mucosa; test: Transepithelial electrical resistance and short circuit current in Ussing chambers; details: 0.05 mM digoxin, 0.1 mM phenytoin
Procedure: (§1) Water-jacketed reservoirs maintained chamber saline at 37° C.
(§2) In order to confirm stimulation of acid secretion by secretagogue addition and to verify the efficacy of the PPI, mucosal fluid compartment pH was recorded at intervals throughout the experiment with a manual electrode (Denver Instruments, Denver, Colo.). Ag/AgCl voltage and current electrodes were used to measure PD (potential difference) and ISC (short circuit current) approximately every five minutes for the duration of the experiment, as previously described (Hameed et al. (2004) Dig. Dis. Sci., 49:1381-1386), using two single-channel current/voltage clamps (McGrath Research and Technology). Ohm's Law was used to calculate transepithelial electrical resistance across the tissue.
Electrical parameters were monitored throughout the duration of the experiment. Tissues were maintained under open circuit conditions. […] Tissue voltage (potential difference), short circuit current, and transepithelial resistance were recorded approximately every five minutes for the duration of the experiment, by passing a one-second current pulse equal to biological current to bring the potential difference to zero using a current/voltage clamp (McGrath Research & Technology). Transepithelial resistance was calculated by dividing open circuit potential difference by short circuit current (Ohm's law).

[2] = tested on: rat gastric corpus mucosa; test: Transepithelial drug flux studies (3H-digoxin, 14C-phenytoin, mucosal to serosal) before and after omeprazole or DMSO; assay type: in vitro ADME; details: for Post-Omeprazole Flux Value: after 200 μM omeprazole; for Post-Omeprazole Flux Value / Post-DMSO Flux Value: corrected by TLC; for Pre-Omeprazole Flux Value: before 200 μM omeprazole; for % Increase in Flux After DMSO / Post-DMSO Flux Value / Pre-DMSO Flux Value: vehicle control tissue; for Pre-DMSO Flux Value: mean ± SEM
Procedure: Sprague Dawley male rats weighing approximately 400 grams were sacrificed by decapitation and the stomach was quickly removed, cut along the greater curvature, and flushed of luminal contents. The serosal membrane was then stripped from the corpus region and two equal sized pieces of corpus mucosa were mounted in two separate Ussing chambers with exposed tissue areas of 1.13 cm^2. Chambers were connected to 15 mL gas-lift reservoirs filled with un-buffered saline aerated with 100% O2 and bicarbonate-buffered saline aerated with 95% O2/5% CO2 on the mucosal and serosal sides, respectively. Saline temperature was held constant at 37° C. by a jacketed water bath surrounding the reservoirs. 30 minutes at 37° C. was allowed for tissue equilibration. In paired experiments, one tissue served as (vehicle) ‘control’, and the other as omeprazole-treated ‘experimental’.
After 30 minutes of tissue equilibration time in Ussing chambers, dibutyrl cyclic AMP (dBcAMP) (Sigma) was added to a final concentration of 1 mM to the serosal fluid chambers to stimulate acid secretion. […] The addition of the isotope marked the beginning of the flux period. 150 μL or 250 μL samples were taken from the serosal fluid compartment (opposite from which the isotope was added) for liquid scintillation counting (LSC). Samples were initially taken at 30 minute intervals for 90 minutes for the ^14C-phenytoin flux or at 15 minute intervals for 75 minutes for the ^3H-digoxin flux to establish the basal permeability rate (ρmoles/min/cm^2) across the tissue. 200 μM omeprazole (Sigma) (in DMSO) was then added to the mucosal and serosal sides of one chamber and an equivalent amount of DMSO (Sigma) was also added to both sides of the control chamber. Another series of serosal fluid samples were taken for LSC at 15 or 30 minute intervals for the remaining 60 minutes of ^3H-digoxin or ^14C-phenytoin flux experiments, respectfully, to determine flux rate of the radiolabeled drugs after omeprazole addition. In all cases of fluid sampling for liquid scintillation counting, an equal amount of fresh buffered saline was added back to the serosal side to prevent hydrostatic gradients from developing across the tissue. The flux of each isotope (ρmole/min/cm^2) was determined by calculating the linear regression slope of the graph of cpm versus time, and converting cpm to picomoles after determining the specific activity of the drug in the mucosal fluid.
To observe if the omeprazole-induced leak allows for permeation of certain small molecule drugs, ^3H-digoxin was added to the mucosal fluid compartment and saline samples were taken at 15 minute intervals from the serosal fluid compartments for a 135-minute flux period. Omeprazole and/or DMSO were added to their respective tissues 75 minutes after the addition of the isotope. Radioactivity present in the serosal fluid compartment was measured as a function of time before and after the addition of omeprazole or DMSO.

[3] = human, 50 micromolar
Description: A portion of this flux is due to damage of the gastric tissue preparation during mounting in the Ussing chambers. To correct for flux due to edge damage, the flux rate was subtracted prior to omeprazole addition from the flux rate after omeprazole addition. However, the added issue of decline in cell viability over the course of any experiment, and its contribution to overall leak, still remains (this is generally observed in the modest decline in transepithelial electrical resistance over experimental running time).

healthy controls = test: Sucrose leak test before and after five days of omeprazole or famotidine; assay type: in vivo, human
Procedure: An 8 hour overnight urine sample was collected in a container with 5 ml of 10% thymol in isopropanol as antimicrobial preservative. A courier service picked up urine containers at the patient's home and delivered them to the research laboratory. Total urine volume and refractive index were measured and recorded. […] This amount of sucrose equates to the amount of sucrose which leaked from the upper GI lumen.
H-2 blockers such as PEPCID® (famotidine) also cause a GI leak. The instant study was first performed with 20 subjects, all healthy controls. Randomly 10 were put on PPIs (20 mg of omeprazole), 10 on H-2 blockers (40 mg of famotidine). These amounts are standard for acid suppression therapy. […] They were given doses of these drugs in the morning for five days. A sucrose leak test was done the night of the fifth and last day.
Therefore, a second H-2 blocker study was performed looking at leak in an n=5 group but doing evening doses of famotidine and maintaining the other aspects of the above study, with the post H-2 blocker leak test performed again the night of the 5th dose, but now only with a 4-6 hours after the 5th and final dose.

[4] = tested on: rat gastric corpus mucosa; test: Acid secretion (mucosal fluid pH) of dB-cAMP stimulated tissue in Ussing chambers; details: Rattus norvegicus; 25 μM omeprazole, plateau; read-out: inhibition of acid secretion (no further decrease in mucosal fluid pH)
Procedure: as §1, §2
Mucosal and serosal saline pH measurements were taken at approximately five minute intervals using a manual electrode (Denver Instruments) to ensure that the tissue was secreting acid. Mucosal pH readings were also taken before and after the addition of omeprazole to document the action of omeprazole on inhibiting acid secretion. Tissue viability was confirmed at the end of each experiment by tissue exposure to 10 mM amiloride in the mucosal fluid compartment in order to inhibit short circuit current.

[5] = tested on: rat gastric corpus mucosa; test: Transepithelial flux of 14C-labeled probes (mannitol, sucrose, polyethylene glycol) before and after PPI; details: for % Increase in Flux of 14C-[D]-mannitol: 200 μM PPI
Procedure: In each experiment, one adult male Sprague Dawley rat was sacrificed by decapitation. The stomach was removed, flushed, and stripped of its outer serosal membrane, while being frequently moistened with chilled, unbuffered saline. Two pieces of corpus mucosa were mounted in modified Ussing chambers, with exposed tissue surface area of 1.13 cm^2. Chambers were connected to gas-lift reservoirs, with a fluid volume of 17 mL per hemichamber. The mucosal hemichamber was filled with unbuffered saline (with 17 mM glucose) and kept aerated and perfused with 100% O2 at 37° C. […] Water-jacketed reservoirs maintained chamber saline at 37° C.
KRB was adjusted to a pH of 7.3-7.4.
Unbuffered saline was gassed with 100% O2 and was used to bathe the mucosal side of the gastric mucosa.
Approximately 30 minutes after tissues were mounted in Ussing chambers, dibutyrl cyclic AMP (dB-cAMP) (Sigma, St. Louis, Mo.) was added to the serosal sides of both chambers to a concentration of 1 mM in order to stimulate acid output by the tissue.
Three experiments were performed with each PPI, examining gastric permeability to ^14C-mannitol.
Three experiments were performed at each omeprazole concentration.

[6] = Kiley et al. (2007); cited from earlier work
patients = details: Wilde et al. (1994); cited from earlier work
rat gastric corpus = assay type: in vitro ADME; details: omeprazole-treated vs control
Procedure: The numbers provided hereinbelow (Table 6) represent the transepithelial diffusion (mucosal to serosal) of radiolabeled bradykinin. […] It includes only intact bradykinin.
Two data sets from two experiments are provided. These are bradykinin fluxes in picomoles/min/cm^2. One tissue was treated only with DMSO (vehicle control). […] The other tissue (paired pieces of rat gastric corpus) is treated with omeprazole in DMSO. […] The bradykinin leak in controls is likely due to ‘experimental artifact’—in this case mechanical damage of the tissue in handling plus incubation. The increase in flux (leak) of bradykinin seen with DMSO may not be a function of the DMSO at all, but instead simply be a result of tissue ‘breakdown’ over time due to the tissue's very finite lifespan once out of the animal.

[7] = tested on: rat gastric corpus mucosa; assay type: in vitro ADME
Procedure: Additional saline samples were taken from the mucosal and serosal fluid compartments one minute before the addition of omeprazole/DMSO and at the end of the entire flux period to allow for thin-layer chromatography (TLC) analysis of radioactivity that crossed the tissue. TLC was performed to account for the potential contribution of radiolabeled metabolites to total radioactivity crossing the epithelial barrier, in the event of drugs entering gastric epithelial cells and metabolites being effluxed. Saline samples were taken from both surfaces of the tissue to determine possible degradation of the molecule upon exposure to the mucosal surface of the tissue as well as to analyze the chemical nature of the radioactivity that crossed the tissue. […] TLC was performed on silica gel 60 plates (Kodak) by spotting very small amounts of the concentrated sample. Plates were then placed in a sandwich tank and a variety of mobile phases were employed, including butanol/acetic acid/water (120:30:50), isopropanol/water (120:30), and ethyl acetate/methanol/water (81:11:8).

C[C@H]1O[C@@H](O[C@H]2[C@@H](O)C[C@H](O[C@H]3[C@@H](O)C[C@H](O[C@H]4CC[C@@]5(C)[C@H](CC[C@@H]6[C@@H]5C[C@@H](O)[C@]5(C)[C@@H](C7=CC(=O)OC7)CC[C@]65O)C4)O[C@@H]3C)O[C@@H]2C)C[C@H](O)[C@@H]1O [digoxin]
effect of the probe drug itself on transepithelial electrical resistance or short circuit current [1]: not themselves exerting an effect
% Increase in Flux After Omeprazole ([2]; 0.05 mM probe, 200 μM omeprazole, P<0.03 vs DMSO): 82.2%
% Increase in Flux After Omeprazole ([2]; 0.05 mM probe, 200 μM omeprazole, P<0.03 vs DMSO, listed as 3H-Digoxin): 82.2% ± 7.7%
Post-Omeprazole Flux Value ([2]; 0.05 mM probe): 9.4 ± 0.6 ρmole/min/cm^2
Pre-Omeprazole Flux Value ([2]; 0.05 mM probe, 4 experiments): 5.1 ± 0.2 ρmole/min/cm^2
% Increase in Flux After DMSO ([2]; 0.05 mM probe): 50.9%
Post-DMSO Flux Value ([2]; 0.05 mM probe): 7.2 ± 1.5 ρmole/min/cm^2
% Increase in Flux After DMSO ([2]; 0.05 mM probe, listed as 3H-Digoxin): 50.9% ± 7.0%
Pre-DMSO Flux Value ([2]; 0.05 mM probe, 4 experiments): 4.8 ± 1.0 ρmole/min/cm^2
increase in flux of total radioactivity (tritium) after omeprazole addition ([2]; 200 μM omeprazole, not corrected by TLC, SEM): 84%
increase in flux of total radioactivity (tritium), vehicle control ([2]; DMSO, not corrected by TLC): 50%
final flux of true 3H-digoxin ([2]; in the presence of omeprazole, 0.05 mM digoxin): approximately 9 picomoles/min/cm^2
final omeprazole-dependent 3H-digoxin flux ([2]; omeprazole flux minus DMSO flux, 4 paired experiments, SEM): 1.8±0.4 picomoles/min/cm^2
total gastric corpus-wide flux [3]: 900 picomoles/minute

COc1ccc2[nH]c([S+]([O-])Cc3ncc(C)c(OC)c3C)nc2c1 (stereo not shown) [omeprazole]
pre-med sucrose leak (healthy controls; baseline before medication, n=10 per group, SEM): 42 mg
post med sucrose leak (healthy controls; morning doses for five days (20 mg omeprazole or 40 mg famotidine), test night of fifth day, n=10): 212 mg
inhibition at 25 µM [4]: 100%
% Increase in Flux of 14C-[D]-mannitol [5]: 68.72%
% Increase in Flux of 14C-[D]-mannitol ([5]; listed as Omeprazole): 68.72 +/− 8.32%
effect on transepithelial permeability at low concentrations ([5]; 1, 5, or 10 μM omeprazole, 14C-mannitol): no significant effect
concentration at which marked transepithelial permeability increase first occurred ([5]; 14C-mannitol, 1-200 μM tested, plateau at 100 and 200 μM): 25 µM
increase of serum levels of digoxin by omeprazole [6]: more than 350%
patients with diarrhea (patients): 1-3%
patients with headache (patients): 0.5-2.4%
patients with nausea (patients): 0.9-2%

CC[C@H](C)[C@@H]1NC(=O)[C@H](Cc2ccc(O)cc2)NC(=O)[C@@H](N)CSSC[C@@H](C(=O)N2CCC[C@H]2C(=O)N[C@@H](CC(C)C)C(=O)NCC(N)=O)NC(=O)[C@H](CC(N)=O)NC(=O)[C@H](CCC(N)=O)NC1=O [oxytocin, Cys-Tyr-Iso-Gln-Asn-Cys-Pro-Leu-Gly]
leak with omeprazole over control (rat gastric corpus): not observed

O=C1NC(=O)C(c2ccccc2)(c2ccccc2)N1 [phenytoin]
effect of the probe drug itself on transepithelial electrical resistance or short circuit current [1]: not themselves exerting an effect
% Increase in Flux After Omeprazole ([2]; 0.1 mM probe, 200 μM omeprazole, listed as 14C-Phenytoin): 54.4% ± 7.7%
% Increase in Flux After Omeprazole ([2]; 0.1 mM probe, 200 μM omeprazole, listed as 14C-phenytoin): 54.4%
Post-Omeprazole Flux Value ([2]; 0.1 mM probe): 119.4 ± 12.9 ρmole/min/cm^2
Pre-Omeprazole Flux Value ([2]; 0.1 mM probe, 3 experiments): 78.3 ± 11.4 ρmole/min/cm^2
% Increase in Flux After DMSO ([2]; 0.1 mM probe): 69.3%
Post-DMSO Flux Value ([2]; 0.1 mM probe): 120.0 ± 14.7 ρmole/min/cm^2
% Increase in Flux After DMSO ([2]; 0.1 mM probe, listed as 14C-Phenytoin): 69.3% ± 13.9%
Pre-DMSO Flux Value ([2]; 0.1 mM probe, 3 experiments): 71.9 ± 9.8 ρmole/min/cm^2
metabolic breakdown on crossing the gastric mucosa [7]: no metabolic breakdown
co-migration of serosal radioactivity with pure phenytoin standard ([7]; male, Sprague Dawley, rat, 0.1 mM): 100%
